According to the NIST ThermoML archive (doi:10.1016/j.jct.2018.03.027):

Assay: mn = molality of the nth substance listed, in mol/kg
Conditions: 100 kPa, Liquid, Pycnometric method

O=C([O-])[O-].[Li+].[Li+] [lithium carbonate] + O
Conditions	mass density [kg/m3]
283.15 K, m1 = 0.1933	1007.2
298.15 K, m1 = 0.1738	1003.8
303.15 K, m1 = 0.1676	1002.2
313.15 K, m1 = 0.1558	998.3
323.15 K, m1 = 0.1454	993.7
333.15 K, m1 = 0.1352	988.5
343.15 K, m1 = 0.1251	982.6
353.15 K, m1 = 0.1149	976.2
363.15 K, m1 = 0.106	969.4
368.15 K, m1 = 0.1015	965.2
